A value given as a limit tells only on which side of the number the result lay.

Data on twelve compounds can be found in patent publication US5185347A, “Piperidine compounds and antiulcer composition containing the same” (Meiji Seika Kaisha Ltd., priority 1990, dated 1993).

Data set [1] concerns Water Immersion Restraint Stress-Induced Ulcer. As to the kind of experiment: Test on Water Immersion Restraint Stress-Induced Ulcer. In kind it is in vivo, Wister male rat. To be noted: 30 mg/5 ml/kg-b.w. in 0.5% CMC, 1 hour before stress, water immersion restraint 6 hours, 20 to 22° C., ulcer index = sum of longer diameters (mm); for inhibition in vivo at 30 mg/kg: Rattus norvegicus, read-out: Percent Inhibition on Ulceration. As to the method:
1) Test on Water Immersion Restraint Stress-Induced Ulcer:
A 11-week-old Wister male rat having been deprived of food for 18 hours was restrained in a cage and immersed chest-deep in water at 20 to 22° C. for 6 hours to impose a stress. The rat taken out of water was sacrificed by cervical dislocation, the stomach removed, 5 ml of a 5% formalin aqueous solution poured into the stomach, and the whole stomach was soaked in the same solution for 30 minutes. The thus fixed sample was opened along the greater curvature. The longer diameter (mm) of ulcers formed was measured with a slide caliper, and the sum was taken as an ulcer index. Each of test compounds shown in Table 1 below was suspended in a 0.5% carboxymethylcellulose (CMC) solution and administered to the rat (test group) at a dose level of 30 mg/5 ml/kg-b.w. 1 hour before imposition of a stress. Only a 0.5% CMC solution (5 ml) was administered to a control group. A percent inhibition of ulceration was obtained from equation: [formula]

Data set [2] can be described thus: Toxicity (oral LD50). To be noted: in vivo, orally administering, species not given. The text has this: The compounds of the present invention are of low toxicity.
Data set [3] has as its system Ethanol-Induced Ulcer. In words: Ethanol-Induced Ulcer. It is filed as in vivo, Donryu male rat. To be noted: orally, 30 mg/5 ml/kg-b.w. in 0.5% CMC, one hour before 5 ml/kg-b.w. of 100% ethanol. How it is done:
2) Ethanol-Induced Ulcer:
A Donryu male rat having been deprived of food for 48 hours and of water for 24 hours orally received 5 ml/kg-b.w. of 100% ethanol. One hour later, the rat was sacrificed in the same manner as described in (1) above, the stomach removed and treated in the same manner as above. The test compound (the compound of Example 2) was suspended in a 0.5% CMC solution and orally administered to the rat at a dose of 30 mg/5 ml/kg-b.w. one hour before administration of ethanol.

Turning to `Cc1ccc2nc(SCCN3C(C)(C)CCCC3(C)C)[nH]c2c1` [Example 6, 5-Methyl-2-[2-(2,2,6,6-tetramethylpiperidin-1-yl)ethylthio]benzimidazole], the inhibition in vivo at 30 mg/kg in data set [1] is 95%.

One may read the LD50 as the dose expected to kill half of the subjects tested. For `CCOC(=O)C(Cc1ccc2[nH]c(SCCN3C(C)(C)CCCC3(C)C)nc2c1)NC(C)=O` (stereo not shown) [Example 5, 5-[2-Acetylamino-2-ethoxycarbonyl)ethyl-2-[2-(2,2,6,6-tetramethylpiperidin-1-yl)ethylthio]benzimidazole], the inhibition in vivo at 30 mg/kg in data set [1] amounted to 97%. The LD50 in data set [2] is greater than 1000 mg/kg.

With `CC1(C)CCCC(C)(C)N1CCSc1nc2ccccc2n1Cc1ccccc1` [Example 11], the inhibition in vivo at 30 mg/kg in data set [1] is 95%. As to `CC1(C)CCCC(C)(C)N1CCSc1nc2cc(CC(NC(=O)c3ccc(Cl)cc3)C(=O)O)ccc2[nH]1` (stereo not shown) [Example 4, 5-[2-Carboxy-2-(p-chlorobenzoyl)amino]ethyl-2-[2-(2,2,6,6-tetramethylpiperidin-1-yl)ethylthio]benzimidazole], the inhibition in vivo at 30 mg/kg in data set [1] worked out at 40%. Take `CC1(C)CCCC(C)(C)N1CCSc1nc2cc(CO)ccc2[nH]1` [Example 7]: the inhibition in vivo at 30 mg/kg in data set [1] stood at 97%.

Regarding `COC(=O)c1ccc2[nH]c(SCCN3C(C)(C)CCCC3(C)C)nc2c1` [Example 8], in data set [1], the inhibition in vivo at 30 mg/kg was determined as 98%. As for “5(6)-(2-Acetylamino-2-ethoxycarbonyl)ethyl-l-[2-(2,2,6,6-tetramethylpiperidin-1-yl)]ethyl-2-[2-(2,2,6,6-tetramethylpiperidin-1-yl)ethylthio]benzimidazole [Example 12]”, the “Percent Inhibition on Ulceration” value in data set [1] worked out at 87%. As for `Cn1c(SCCN2C(C)(C)CCCC2(C)C)nc2ccccc21` [Example 10], the inhibition in vivo at 30 mg/kg in data set [1] worked out at 100%. Take `CCOC(=O)C(Cc1ccc2[nH]c(SCCN3C(C)(C)CCCC3(C)C)nc2c1)NC(=O)c1ccc(Cl)cc1` (stereo not shown) [Example 2]: in data set [1], the inhibition in vivo at 30 mg/kg is 97%. Besides, the inhibition on erosion in data set [3] stood at 80%. This compound also registered an LD50 in data set [2] greater than 1000 mg/kg.

Turning to `CC1(C)CCCC(C)(C)N1CCSc1nc2ccccc2[nH]1` [Example 9], the inhibition in vivo at 30 mg/kg in data set [1] was determined as 97%. Take `CC1(C)CCCC(C)(C)N1CCSc1nc2cc(CC(NC(=O)c3ccc(Cl)cc3)C(N)=O)ccc2[nH]1` (stereo not shown) [Example 3, 5-[2-Carbamoyl-2-(p-chlorobenzoyl)amino]ethyl-2-[2-(2,2,6,6-tetramethylpiperidin-1-yl)ethylthio]benzimidazole]: the inhibition in vivo at 30 mg/kg in data set [1] amounted to 62%. As for `COc1ccc2nc(SCCN3C(C)(C)CCCC3(C)C)[nH]c2c1` [Example 1, 5-Methoxy-2-[2-(2,2,6,6-tetramethylpiperidin-1-yl)ethylthio]benzimidazole], the inhibition in vivo at 30 mg/kg in data set [1] is 92%. The compound also yielded an LD50 in data set [2] greater than 1000 mg/kg.
